Tested on: 843782-103-R-J1-PDC complex spheroid viability
Test: Anticancer human tumor 843782-103-R-J1-PDC patient-derived lung adenocarcinoma cell line growth inhibition [RAS]
Conditions: for IC50: curve of first compound; for viability, T/C: stronger effect = lower value; active means viability on the fitted dose curve at most 10% of control; inactive means the rest
How it was run: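 Tumour cells grown as complex spheroids with HUVEC endothelial cells and mesenchymal stem cells, treated with RAS pathway inhibitor combinations. Each agent spans half-log steps from near clinical Cmax, or 10 microM where Cmax is unknown.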

[1] = second compound 0.000949 µM, first compound 0.0316 µM
[2] = second compound 0.000949 µM, first compound 0.1 µM
[3] = second compound 0.000949 µM, first compound 0.316 µM
[4] = second compound 0.000949 µM, first compound 1 µM
[5] = second compound 0.000949 µM, first compound 3.16 µM
[6] = second compound 0.000949 µM, first compound 10 µM
[7] = second compound 0.003 µM, first compound 0.0316 µM
[8] = second compound 0.003 µM, first compound 0.1 µM
[9] = second compound 0.003 µM, first compound 0.316 µM
[10] = second compound 0.003 µM, first compound 1 µM
[11] = second compound 0.003 µM, first compound 3.16 µM
[12] = second compound 0.003 µM, first compound 10 µM
[13] = second compound 0.00949 µM, first compound 0.0316 µM
[14] = second compound 0.00949 µM, first compound 0.1 µM
[15] = second compound 0.00949 µM, first compound 0.316 µM
[16] = second compound 0.00949 µM, first compound 1 µM
[17] = second compound 0.00949 µM, first compound 3.16 µM
[18] = second compound 0.00949 µM, first compound 10 µM
[19] = second compound 0.03 µM, first compound 0.0316 µM
[20] = second compound 0.03 µM, first compound 0.1 µM
[21] = second compound 0.03 µM, first compound 0.316 µM
[22] = second compound 0.03 µM, first compound 1 µM
[23] = second compound 0.03 µM, first compound 3.16 µM
[24] = second compound 0.03 µM, first compound 10 µM
[25] = second compound 0.0949 µM, first compound 0.0316 µM
[26] = second compound 0.0949 µM, first compound 0.1 µM
[27] = second compound 0.0949 µM, first compound 0.316 µM
[28] = second compound 0.0949 µM, first compound 1 µM
[29] = second compound 0.0949 µM, first compound 3.16 µM
[30] = second compound 0.0949 µM, first compound 10 µM
[31] = second compound 0.3 µM, first compound 0.0316 µM
[32] = second compound 0.3 µM, first compound 0.1 µM
[33] = second compound 0.3 µM, first compound 0.316 µM
[34] = second compound 0.3 µM, first compound 1 µM
[35] = second compound 0.3 µM, first compound 3.16 µM
[36] = second compound 0.3 µM, first compound 10 µM
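Further: viability read after seven days of compound exposure.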

CC1(O)CCCC1n1c(=O)c(C(F)F)cc2cnc(NC3CCN(S(C)(=O)=O)CC3)nc21 (stereo not given) + CCn1c(-c2cccnc2C(C)OC)c2c3cc(ccc31)N1CCOC(CC(NC(=O)C(C(C)C)N(C)C(=O)C3(F)CCN(C(=O)C#CC(C)(C)N(C)C)CC3)C(=O)N3CCCC(N3)C(=O)OCC(C)(C)C2)C1
71.8 nM: IC50 (second compound 0.00949 µM)
62.4 nM: IC50 (second compound 0.03 µM)
73.9 nM: IC50 (second compound 0.0949 µM)
59.5 nM: IC50 (second compound 0.3 µM)
59 nM: IC50 (second compound 0.000949 µM)
inactive: viability, T/C [1] 60.3% | viability, T/C [2] 41.9% | viability, T/C [3] 26.5% | viability, T/C [4] 18.6% | viability, T/C [5] 19% | viability, T/C [7] 64.3% | viability, T/C [8] 48.8% | viability, T/C [9] 24.5% | viability, T/C [10] 22.2% | viability, T/C [11] 14.9% | viability, T/C [13] 61.6% | viability, T/C [14] 43.5% | viability, T/C [15] 32.4% | viability, T/C [16] 23.2% | viability, T/C [17] 15.3% | viability, T/C [19] 58.2% | viability, T/C [20] 45.9% | viability, T/C [21] 28.3% | viability, T/C [22] 24.2% | viability, T/C [23] 15.5% | viability, T/C [25] 60.5% | viability, T/C [26] 50.1% | viability, T/C [27] 25.9% | viability, T/C [28] 24.4% | viability, T/C [29] 16.4% | viability, T/C [31] 60.5% | viability, T/C [32] 43.2% | viability, T/C [33] 21.9% | viability, T/C [34] 23% | viability, T/C [35] 19.4%
active: viability, T/C [6] 2.09% | viability, T/C [12] 2.67% | viability, T/C [18] 2.34% | viability, T/C [24] 4.11% | viability, T/C [30] 2.24% | viability, T/C [36] 1.76%
77.4 nM: IC50 (second compound 0.003 µM)

CCC(CC)c1cc(NC2CCC(N)C2)n2nccc2n1 (stereo not given) + CCn1c(-c2cccnc2C(C)OC)c2c3cc(ccc31)N1CCOC(CC(NC(=O)C(C(C)C)N(C)C(=O)C3(F)CCN(C(=O)C#CC(C)(C)N(C)C)CC3)C(=O)N3CCCC(N3)C(=O)OCC(C)(C)C2)C1
inactive: viability, T/C [1] 70.7% | viability, T/C [2] 66.5% | viability, T/C [3] 73.8% | viability, T/C [4] 50.8% | viability, T/C [7] 70.5% | viability, T/C [8] 87% | viability, T/C [9] 67.8% | viability, T/C [10] 44.1% | viability, T/C [13] 73.5% | viability, T/C [14] 73.7% | viability, T/C [15] 78.1% | viability, T/C [16] 51.9% | viability, T/C [19] 78.4% | viability, T/C [20] 82.8% | viability, T/C [21] 71.9% | viability, T/C [22] 53.5% | viability, T/C [25] 74.6% | viability, T/C [26] 67.4% | viability, T/C [27] 65.7% | viability, T/C [28] 44.8% | viability, T/C [31] 77.3% | viability, T/C [32] 67.2% | viability, T/C [33] 61.8% | viability, T/C [34] 48.4%
1020 nM: IC50 (second compound 0.000949 µM)
754 nM: IC50 (second compound 0.003 µM)
768 nM: IC50 (second compound 0.0949 µM)
1070 nM: IC50 (second compound 0.03 µM)
883 nM: IC50 (second compound 0.3 µM)
active: viability, T/C [5] 1.84% | viability, T/C [6] 0.99% | viability, T/C [11] 1.8% | viability, T/C [12] 0.91% | viability, T/C [17] 3.01% | viability, T/C [18] 1.66% | viability, T/C [23] 1.5% | viability, T/C [24] 1.09% | viability, T/C [29] 1.32% | viability, T/C [30] 0.88% | viability, T/C [35] 1.4% | viability, T/C [36] 0.57%
1040 nM: IC50 (second compound 0.00949 µM)

CCN1CCN(Cc2ccc(Nc3ncc(F)c(-c4cc(F)c5nc(C)n(C(C)C)c5c4)n3)nc2)CC1 + CCn1c(-c2cccnc2C(C)OC)c2c3cc(ccc31)N1CCOC(CC(NC(=O)C(C(C)C)N(C)C(=O)C3(F)CCN(C(=O)C#CC(C)(C)N(C)C)CC3)C(=O)N3CCCC(N3)C(=O)OCC(C)(C)C2)C1
inactive: viability, T/C (second compound 0.000949 µM, first compound 0.00316 µM) 81% | viability, T/C (second compound 0.000949 µM, first compound 0.01 µM) 73.8% | viability, T/C [1] 59% | viability, T/C [2] 58.3% | viability, T/C [3] 46.5% | viability, T/C [4] 38.1% | viability, T/C (second compound 0.003 µM, first compound 0.00316 µM) 78.8% | viability, T/C (second compound 0.003 µM, first compound 0.01 µM) 69.4% | viability, T/C [7] 62.8% | viability, T/C [8] 67.1% | viability, T/C [9] 45.4% | viability, T/C [10] 37.8% | viability, T/C (second compound 0.00949 µM, first compound 0.00316 µM) 71.4% | viability, T/C (second compound 0.00949 µM, first compound 0.01 µM) 72.5% | viability, T/C [13] 67.6% | viability, T/C [14] 61.2% | viability, T/C [15] 46.2% | viability, T/C [16] 34.1% | viability, T/C (second compound 0.03 µM, first compound 0.00316 µM) 71.3% | viability, T/C (second compound 0.03 µM, first compound 0.01 µM) 72% | viability, T/C [19] 71% | viability, T/C [20] 58.8% | viability, T/C [21] 56.4% | viability, T/C [22] 35.6% | viability, T/C (second compound 0.0949 µM, first compound 0.00316 µM) 84.2% | viability, T/C (second compound 0.0949 µM, first compound 0.01 µM) 75.7% | viability, T/C [25] 68.7% | viability, T/C [26] 60.3% | viability, T/C [27] 46.7% | viability, T/C [28] 45% | viability, T/C (second compound 0.3 µM, first compound 0.00316 µM) 72% | viability, T/C (second compound 0.3 µM, first compound 0.01 µM) 66.1% | viability, T/C [31] 56.5% | viability, T/C [32] 66.8% | viability, T/C [33] 46% | viability, T/C [34] 38.8%
237 nM: IC50 (second compound 0.00949 µM)
406 nM: IC50 (second compound 0.03 µM)
197 nM: IC50 (second compound 0.000949 µM)
329 nM: IC50 (second compound 0.0949 µM)
298 nM: IC50 (second compound 0.3 µM)
291 nM: IC50 (second compound 0.003 µM)

Cc1nc(N2CCC3(CC2)COC(C)C3N)c(CO)nc1Sc1ccnc(N)c1Cl (stereo not given) + CCn1c(-c2cccnc2C(C)OC)c2c3cc(ccc31)N1CCOC(CC(NC(=O)C(C(C)C)N(C)C(=O)C3(F)CCN(C(=O)C#CC(C)(C)N(C)C)CC3)C(=O)N3CCCC(N3)C(=O)OCC(C)(C)C2)C1
45.3 nM: IC50 (second compound 0.0949 µM)
50.4 nM: IC50 (second compound 0.003 µM)
36.9 nM: IC50 (second compound 0.3 µM)
55 nM: IC50 (second compound 0.000949 µM)
53.8 nM: IC50 (second compound 0.00949 µM)
inactive: viability, T/C [1] 57.4% | viability, T/C [2] 43.4% | viability, T/C [3] 31.3% | viability, T/C [4] 21% | viability, T/C [5] 20.8% | viability, T/C [6] 17.4% | viability, T/C [7] 55.1% | viability, T/C [8] 42% | viability, T/C [9] 31.6% | viability, T/C [10] 22.2% | viability, T/C [11] 17.3% | viability, T/C [12] 20.6% | viability, T/C [13] 55.1% | viability, T/C [14] 44.2% | viability, T/C [15] 28.6% | viability, T/C [16] 21.3% | viability, T/C [17] 23.1% | viability, T/C [18] 16.4% | viability, T/C [19] 53.8% | viability, T/C [20] 40.2% | viability, T/C [21] 34.5% | viability, T/C [22] 27.6% | viability, T/C [23] 18.6% | viability, T/C [24] 17.8% | viability, T/C [25] 55.4% | viability, T/C [26] 37% | viability, T/C [27] 34.3% | viability, T/C [28] 24.1% | viability, T/C [29] 19.4% | viability, T/C [30] 23.6% | viability, T/C [31] 51.3% | viability, T/C [32] 42.1% | viability, T/C [33] 31.6% | viability, T/C [34] 22.6% | viability, T/C [35] 20.8% | viability, T/C [36] 21.4%
44.4 nM: IC50 (second compound 0.03 µM)

NC1c2ccccc2OC12CCN(c1cnc3c(N4CCCc5ncccc54)n[nH]c3n1)CC2 (stereo not given) + CCn1c(-c2cccnc2C(C)OC)c2c3cc(ccc31)N1CCOC(CC(NC(=O)C(C(C)C)N(C)C(=O)C3(F)CCN(C(=O)C#CC(C)(C)N(C)C)CC3)C(=O)N3CCCC(N3)C(=O)OCC(C)(C)C2)C1
< 31.6 nM: IC50 (second compound 0.000949 µM) | IC50 (second compound 0.003 µM) | IC50 (second compound 0.00949 µM) | IC50 (second compound 0.03 µM) | IC50 (second compound 0.0949 µM) | IC50 (second compound 0.3 µM)
inactive: viability, T/C [1] 35.5% | viability, T/C [2] 24.2% | viability, T/C [3] 17.8% | viability, T/C [4] 17% | viability, T/C [5] 11.9% | viability, T/C [6] 15.1% | viability, T/C [7] 32.3% | viability, T/C [8] 21.8% | viability, T/C [9] 20.1% | viability, T/C [10] 16.4% | viability, T/C [11] 15.2% | viability, T/C [12] 12.4% | viability, T/C [13] 27.7% | viability, T/C [14] 25.4% | viability, T/C [15] 21% | viability, T/C [16] 14.5% | viability, T/C [17] 14.9% | viability, T/C [18] 13.7% | viability, T/C [19] 28.8% | viability, T/C [20] 24.7% | viability, T/C [21] 21.4% | viability, T/C [22] 18.5% | viability, T/C [23] 15.8% | viability, T/C [24] 14.1% | viability, T/C [25] 38.2% | viability, T/C [26] 24.4% | viability, T/C [27] 24% | viability, T/C [28] 16.6% | viability, T/C [29] 15.4% | viability, T/C [30] 12.4% | viability, T/C [31] 26.1% | viability, T/C [32] 23.8% | viability, T/C [33] 18.8% | viability, T/C [34] 21.8% | viability, T/C [35] 16.9% | viability, T/C [36] 14.1%
